Experimental data taken from US9974832B2, “Therapeutic effects of bryostatins, bryologs, and other related substances on head trauma-induced memory impairment and brain injury” (Cognitive Research Enterprises, Inc., priority 2007, dated 2018).

Legend:
[1] = molecular target: PKC; details: read-out: affinity for PKC, A-ring bryologs; cited from earlier work
[2] = compared with phorbol; cited from earlier work
[3] = test system: NCI 60 cell line screen; details: cited from earlier work
[4] = (−)-enantiomer; cited from earlier work
[5] = test system: cyclin dependent kinase 2 (Cdk2); details: at 5 ng/ml; cited from earlier work
[6] = test system: murine leukemias and solid tumors; details: cited from earlier work
[7] = test system: PKC; details: K562 cells; cited from earlier work
[8] = test system: tumor promotion; details: cited from earlier work
[9] = test system: head trauma-induced brain injury and memory impairment; assay: minimal traumatic brain injury in mice, Morris Water Maze; format: in vivo; details: treatment started one hour after head trauma
Method: Minimal traumatic brain injury (TBI) was produced in mice by a concussive event using a 30 g mass. One hour post trauma, the mice received 20 or 30 μg bryostatin per kg doses by intraperitoneal injection. The injections were repeated twice weekly for a total of 5 treatments. The effects on learning and memory of bryostatin treatment in treated animals was tested in the Morris Water Maze.
The platform was removed and the animals were tested for how long they searched the correct quadrant versus the incorrect quadrants. In the passive avoidance procedure the animal remembers the distinctive environment in which a mild electric shock is delivered and avoids it on a second occasion.
Minimal traumatic brain injury (TBI) was produced in mice by a concussive event using a 30 g mass. One hour post trauma, the mice received 30 μg bryostatin per kg doses by intraperitoneal injection. The injections were repeated twice weekly for a total of 5 treatments. The escape latencies in a Morris Water Maze of mice treated with bryostatin after minimal TBI were compared to animals with minimal TBI, control animals receiving no TBI or bryostatin, and animals receiving bryostatin only.
Minimal traumatic brain injury (TBI) was produced in mice by a concussive event using a 30 g mass. One hour post trauma, the mice received 20 μg bryostatin per kg doses by intraperitoneal injection. […]

[10] = in vivo; cited from earlier work
[11] = molecular target: T1, PKCϵ (Homo sapiens, UniProt Q02156); details: cited from earlier work
T1 sequence (Q02156 1-737): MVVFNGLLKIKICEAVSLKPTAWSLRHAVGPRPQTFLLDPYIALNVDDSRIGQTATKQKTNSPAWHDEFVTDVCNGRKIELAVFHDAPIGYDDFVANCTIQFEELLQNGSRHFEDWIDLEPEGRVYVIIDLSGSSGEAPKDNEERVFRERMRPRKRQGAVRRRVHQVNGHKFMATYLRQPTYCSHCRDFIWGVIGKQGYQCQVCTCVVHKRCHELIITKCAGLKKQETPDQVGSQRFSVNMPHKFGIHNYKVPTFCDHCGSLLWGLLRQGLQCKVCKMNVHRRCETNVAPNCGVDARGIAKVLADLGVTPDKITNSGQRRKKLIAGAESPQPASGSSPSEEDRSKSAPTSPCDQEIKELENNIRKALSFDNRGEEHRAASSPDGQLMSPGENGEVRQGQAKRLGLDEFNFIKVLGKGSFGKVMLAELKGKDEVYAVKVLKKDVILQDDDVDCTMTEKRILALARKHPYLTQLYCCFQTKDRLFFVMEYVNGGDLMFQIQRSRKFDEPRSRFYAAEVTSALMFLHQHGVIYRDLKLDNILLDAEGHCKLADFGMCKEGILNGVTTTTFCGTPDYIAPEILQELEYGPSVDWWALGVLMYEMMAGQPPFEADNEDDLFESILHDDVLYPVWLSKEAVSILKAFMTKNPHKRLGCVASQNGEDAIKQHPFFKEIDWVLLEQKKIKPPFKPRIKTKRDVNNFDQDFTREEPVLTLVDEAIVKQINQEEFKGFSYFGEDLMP

[12] = test system: squamous cell carcinoma and melanoma; details: used topically; cited from earlier work

For `CCCCCCCC(=O)OC1C(=CC(=O)OC)CC2CC(CO)OC(=O)CC(O)CCOC(C(C)(C)C)CC3CCOC(C=CC(C)(C)C1(O)O2)O3` (stereo not drawn) [bryolog 3], the Ki [1] is listed as 6.5 nM.
In the case of Ingenol, the toxicity [2] is given as “much less toxicity”.
For `CCCCCCCC(=O)OC1C(=CC(=O)OC)CC2CC(CO)OC(=O)CC(O)CCOC(c3ccccc3)CC3CCOC(C=CC(C)(C)C1(O)O2)O3` (stereo not drawn) [bryolog 4], the Ki [1] is given as 2.3 nM.
In the case of `CC1=CC[C@H](C)C(C)(C)[C@@H]1/C=C/C(C)=C/CC[C@@]1(CO)[C@H](CCCO)/C(=C(/C)C=O)CC[C@]1(C)O` [Iripallidal], the “GI50 (concentration required to inhibit growth by 50%)” value [3] is given as “micromolar to nanomolar range”.
For `CCCCCCCCc1ccc2c3c(c[nH]c13)C[C@@H](CO)NC(=O)[C@H](C(C)C)N2C` [Octylindolactam V], the metabolic stability [4] is given as “greater metabolic stability”.
In the case of `C=C(C)[C@]12C[C@@H](COC(=O)c3ccccc3)[C@@]34OC5(O[C@@H]1[C@@H]3C1O[C@]1(CO)[C@@H](O)[C@@]1(O)[C@H]4[C@@H](C(C)CCCCCC[C@@H]5O)C(C)[C@@H]1OC(=O)c1ccccc1)O2` (stereo partly drawn) [Gnidimacrin], the “inhibition of Cdk2” value [5] is listed as 100%, the “concentrations with potent antitumor activity” value [6] is listed as 0.1 to 1 nM and the “concentration at which it acts as a PKC activator” value [7] is listed as “≈ 3 nM”.
In the case of `CCCC=CC=CC(=O)OC1C(=CC(=O)OC)CC2CC(C(C)O)OC(=O)CC(O)CC3CC(OC(C)=O)C(C)(C)C(O)(CC4CC(=CC(=O)OC)CC(C=CC(C)(C)C1(O)O2)O4)O3` (stereo not drawn) [Bryostatin 1, bryostatin-1], the tumor promotion activity [8] is given as “devoid of tumor promotion activity”, the “therapeutic effect on brain injury and memory impairment induced with head trauma” value [9] is given as “therapeutic value against brain injury and memory impairment” and the “main adverse reaction in humans” value [10] is given as “myalgia”. For the same compound, the “tolerability of doses in humans” value [10] was “well tolerated in humans”.
In the case of `CCCCCC1CC1CC1CC1CCCCCCCC(=O)O` (stereo not drawn) [DCP-LA, 2-[(2-pentylcyclopropyl)methyl]cyclopropaneoctanoic acid], the “concentration of maximal effect” value [11] is listed as 100 nM.
For `C/C=C(/C)C(=O)O[C@H]1C(C)=C[C@]23C(=O)[C@@H](C=C(CO)[C@@H](O)[C@]12O)[C@H]1[C@@H](C[C@H]3C)C1(C)C` [Ingenol-3-angelate], the antitumor activity [12] is listed as “possesses antitumor activity”.
In the case of `CCCCCCCC(=O)OC1C(=CC(=O)OC)CC2CC(CO)OC(=O)CC(O)CCOC(CCCc3ccc(Br)cc3)CC3CCOC(C=CC(C)(C)C1(O)O2)O3` (stereo not drawn) [bryolog 5], the Ki [1] is given as 1.9 nM.
